From patent publication US20250243196A1, “CITRON KINASE INHIBITORS” (The Cleveland Clinic Foundation, priority 2021, published 2025)

How the values were obtained:
[1] = biological target: Mnk2 (Homo sapiens (Human), UniProt Q9HBH9); assay: KinaseProfiler radiometric assay (14-664KP); format: biochemical; details: mean of at least two independent experiments
Text: In another aspect, disclosed is a method of inhibiting citron kinase in a sample, comprising contacting the sample with a compound described herein (e.g., a compound of formula (I) or a pharmaceutically acceptable salt thereof), or a pharmaceutical composition described herein (e.g., a pharmaceutical composition comprising a compound of formula (I) or a pharmaceutically acceptable salt thereof), in an amount effective to inhibit citron kinase. In some embodiments, the step of contacting the sample with the compound comprises administering the compound to a subject (e.g., a subject) suffering from cancer. Methods of determining kinase inhibition are well known in the art. For example, kinase activity of an enzyme and the inhibitory capacity of a test compound can be determined by measuring enzyme specific phosphorylation of a substrate. Commercial assays and kits can be employed. For example, kinase inhibition can be determined using a radiometric binding assay, such as using KinaseProfiler™ technology (Eurofins Discovery). This assay method directly detects product formation without the use of modified substrates or coupling enzymes. […]
The effect of various compounds on the inhibition of other kinases has also been determined. Table 2 reports measured IC50 values; value units are nanomolar inhibition.

[2] = biological target: NanoLuc-CITK (full-length human CITK) (Homo sapiens (Human), UniProt O14578); assay: NanoBRET intracellular target engagement assay; format: cell-based
Description: In-cell Kd values were evaluated with a NanoBRET Target Engagement Assay essentially as recommended by the manufacturer (Promega Corporation—for details see https://www.promega.com/resources/technologies/nanoluc-luciferase-enzyme/cellular-target-engagement/).
HEK293T cells were transfected with 5.0 μg/mL sterile NanoLuc-CITK DNA, 5.0 μg/mL Transfection Carrier DNA, and 30 μL/mL FugeneHD® (Promega) in Opti-Mem™ (Thermo) media at a cell density of 250,000 cells/mL. […] 5 μL of the 25× Tracer K10 solution was added to each well. Next, designated inhibitors were prepared from powder as 10 mM DMSO stocks and then further diluted to 10× the final assay concentration in Opti-Mem™. 12-pt dose-response curves were prepared by 3×-serial dilution. […] A 3× Complete Substrate+Inhibitor solution, containing 6 mL of Opti-Mem™, 36 μL of NanoBRET Nano-Glo Substrate, and 12 μL Extracellular NanoLuc Inhibitor was freshly prepared for each plate. 50 μL of the 3× Complete Substrate+Inhibitor solution was added to all wells and the plate was incubated for 2 min with 500 RPM shaking. The bottom of the plates were covered with black plate seals and then measured on a Cytation 5 plate reader (Biotek) with a NanoBRET Filter Cube (Biotek; 450/50 emission & 610LP emission). Background corrected BRET ratios (in mBU) were calculated in Excel and IC50's were subsequently extracted using four-parameter non-linear regression in GraphPad Prism 8.

[3] = biological target: Aurora-A(h) (Homo sapiens (Human), UniProt O14965); assay: KinaseProfiler panel; format: biochemical; parameters: dose or concentration left out as unconfirmed; details: activity remaining
[4] = biological target: BrSK2(h) (Homo sapiens (Human), UniProt Q8IWQ3); assay: KinaseProfiler panel; format: biochemical; parameters: dose or concentration left out as unconfirmed; details: activity remaining
[5] = biological target: CDK17/cyclinY(h) (Homo sapiens (Human), UniProt Q00537); assay: KinaseProfiler panel; format: biochemical; parameters: dose or concentration left out as unconfirmed; details: activity remaining
[6] = biological target: CK1α(h) (Homo sapiens (Human), UniProt P48729); assay: KinaseProfiler panel; format: biochemical; parameters: dose or concentration left out as unconfirmed; details: activity remaining
[7] = biological target: cKit(h) (Homo sapiens (Human), UniProt P10721); assay: KinaseProfiler panel; format: biochemical; parameters: dose or concentration left out as unconfirmed; details: activity remaining
[8] = biological target: DMPK(h) (Homo sapiens (Human), UniProt Q09013); assay: KinaseProfiler panel; format: biochemical; parameters: dose or concentration left out as unconfirmed; details: activity remaining
[9] = biological target: DRAK1(h) (Homo sapiens (Human), UniProt Q9UEE5); assay: KinaseProfiler panel; format: biochemical; details: activity remaining
[10] = biological target: DYRK1A(h) (Homo sapiens (Human), UniProt Q13627); assay: KinaseProfiler panel; format: biochemical; parameters: dose or concentration left out as unconfirmed; details: activity remaining
[11] = biological target: GRK5(h) (Homo sapiens (Human), UniProt P34947); assay: KinaseProfiler panel; format: biochemical; parameters: dose or concentration left out as unconfirmed; details: activity remaining
[12] = biological target: JAK2(h) (Homo sapiens (Human), UniProt O60674); assay: KinaseProfiler panel; format: biochemical; parameters: dose or concentration left out as unconfirmed; details: activity remaining
[13] = biological target: LATS2(h) (Homo sapiens (Human), UniProt Q9NRM7); assay: KinaseProfiler panel; format: biochemical; parameters: dose or concentration left out as unconfirmed; details: activity remaining
[14] = biological target: MLK4(h) (Homo sapiens (Human), UniProt Q5TCX8); assay: KinaseProfiler panel; format: biochemical; parameters: dose or concentration left out as unconfirmed; details: activity remaining
[15] = biological target: NDR2(h) (Homo sapiens (Human), UniProt Q9Y2H1); assay: KinaseProfiler panel; format: biochemical; parameters: dose or concentration left out as unconfirmed; details: activity remaining
[16] = biological target: PAK3(h) (Homo sapiens (Human), UniProt O75914); assay: KinaseProfiler panel; format: biochemical; parameters: dose or concentration left out as unconfirmed; details: activity remaining
[17] = biological target: PDK1(h) (Homo sapiens (Human), UniProt O15530); assay: KinaseProfiler panel; format: biochemical; parameters: dose or concentration left out as unconfirmed; details: activity remaining
[18] = biological target: PKCθ(h) (Homo sapiens (Human), UniProt Q04759); assay: KinaseProfiler panel; format: biochemical; parameters: dose or concentration left out as unconfirmed; details: activity remaining
[19] = biological target: STK16(h) (Homo sapiens (Human), UniProt O75716); assay: KinaseProfiler panel; format: biochemical; parameters: dose or concentration left out as unconfirmed; details: activity remaining
Sequence of STK16(h) (O75716 whole entry): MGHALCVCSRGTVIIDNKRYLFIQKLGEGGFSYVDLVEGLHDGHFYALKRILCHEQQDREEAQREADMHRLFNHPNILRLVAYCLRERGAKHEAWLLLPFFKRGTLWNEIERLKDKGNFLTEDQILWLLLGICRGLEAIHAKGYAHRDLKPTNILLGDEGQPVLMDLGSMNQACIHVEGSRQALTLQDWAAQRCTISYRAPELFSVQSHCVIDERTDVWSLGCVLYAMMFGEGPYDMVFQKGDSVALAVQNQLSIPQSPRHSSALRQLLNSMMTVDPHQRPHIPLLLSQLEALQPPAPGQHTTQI

Sequence of NanoLuc-CITK (full-length human CITK) (O14578 other isoform, or with tags, fused parts or gaps): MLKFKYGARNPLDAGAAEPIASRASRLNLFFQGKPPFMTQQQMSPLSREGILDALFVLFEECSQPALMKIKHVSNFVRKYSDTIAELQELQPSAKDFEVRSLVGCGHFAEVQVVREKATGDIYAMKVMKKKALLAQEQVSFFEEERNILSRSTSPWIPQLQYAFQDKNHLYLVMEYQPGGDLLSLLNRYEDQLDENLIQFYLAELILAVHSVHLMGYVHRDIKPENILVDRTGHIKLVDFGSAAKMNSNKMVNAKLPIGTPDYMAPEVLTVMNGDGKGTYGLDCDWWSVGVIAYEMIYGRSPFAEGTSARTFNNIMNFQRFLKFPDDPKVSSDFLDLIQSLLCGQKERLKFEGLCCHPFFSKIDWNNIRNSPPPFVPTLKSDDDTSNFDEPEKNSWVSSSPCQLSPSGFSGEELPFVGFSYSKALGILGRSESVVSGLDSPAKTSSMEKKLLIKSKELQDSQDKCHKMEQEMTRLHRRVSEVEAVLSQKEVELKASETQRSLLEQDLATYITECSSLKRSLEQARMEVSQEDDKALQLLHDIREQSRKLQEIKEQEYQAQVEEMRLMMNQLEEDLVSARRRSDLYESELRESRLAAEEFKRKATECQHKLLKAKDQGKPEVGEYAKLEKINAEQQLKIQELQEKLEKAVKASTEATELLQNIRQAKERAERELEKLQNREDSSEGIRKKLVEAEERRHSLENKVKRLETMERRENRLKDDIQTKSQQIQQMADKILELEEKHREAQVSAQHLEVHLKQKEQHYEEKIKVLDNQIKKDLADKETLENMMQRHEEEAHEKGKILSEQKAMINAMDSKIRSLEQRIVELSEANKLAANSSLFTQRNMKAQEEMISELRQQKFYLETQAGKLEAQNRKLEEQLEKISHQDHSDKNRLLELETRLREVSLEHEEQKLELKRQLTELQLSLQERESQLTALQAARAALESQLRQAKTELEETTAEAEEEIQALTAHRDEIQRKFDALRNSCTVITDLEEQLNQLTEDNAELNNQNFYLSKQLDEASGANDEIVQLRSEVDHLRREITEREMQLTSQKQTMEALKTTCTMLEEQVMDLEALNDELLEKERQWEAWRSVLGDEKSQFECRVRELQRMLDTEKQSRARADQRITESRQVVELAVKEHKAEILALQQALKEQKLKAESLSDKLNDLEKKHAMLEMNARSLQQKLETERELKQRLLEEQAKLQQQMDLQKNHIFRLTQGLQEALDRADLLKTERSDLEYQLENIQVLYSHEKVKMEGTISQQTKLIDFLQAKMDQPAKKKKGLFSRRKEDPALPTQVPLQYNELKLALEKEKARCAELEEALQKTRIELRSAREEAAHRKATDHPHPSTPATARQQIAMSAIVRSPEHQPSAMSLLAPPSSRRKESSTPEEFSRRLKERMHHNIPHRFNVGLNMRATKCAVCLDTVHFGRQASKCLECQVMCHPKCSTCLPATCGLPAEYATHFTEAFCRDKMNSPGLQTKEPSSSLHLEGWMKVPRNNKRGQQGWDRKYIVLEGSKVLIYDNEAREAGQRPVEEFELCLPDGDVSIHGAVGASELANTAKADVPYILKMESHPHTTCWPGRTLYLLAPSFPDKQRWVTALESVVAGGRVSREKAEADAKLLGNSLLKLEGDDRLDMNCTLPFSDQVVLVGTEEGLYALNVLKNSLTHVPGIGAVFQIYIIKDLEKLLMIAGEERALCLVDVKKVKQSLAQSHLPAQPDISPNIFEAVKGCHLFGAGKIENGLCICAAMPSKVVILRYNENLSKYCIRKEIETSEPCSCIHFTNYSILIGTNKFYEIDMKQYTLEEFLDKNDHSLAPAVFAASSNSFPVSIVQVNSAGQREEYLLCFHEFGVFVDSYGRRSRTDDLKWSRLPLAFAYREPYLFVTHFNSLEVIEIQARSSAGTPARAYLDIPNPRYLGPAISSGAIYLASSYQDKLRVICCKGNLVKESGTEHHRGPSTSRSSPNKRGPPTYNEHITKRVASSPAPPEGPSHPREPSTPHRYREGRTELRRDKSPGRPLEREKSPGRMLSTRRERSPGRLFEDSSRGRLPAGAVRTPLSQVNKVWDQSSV
Sequence of DMPK(h) (Q09013 whole entry): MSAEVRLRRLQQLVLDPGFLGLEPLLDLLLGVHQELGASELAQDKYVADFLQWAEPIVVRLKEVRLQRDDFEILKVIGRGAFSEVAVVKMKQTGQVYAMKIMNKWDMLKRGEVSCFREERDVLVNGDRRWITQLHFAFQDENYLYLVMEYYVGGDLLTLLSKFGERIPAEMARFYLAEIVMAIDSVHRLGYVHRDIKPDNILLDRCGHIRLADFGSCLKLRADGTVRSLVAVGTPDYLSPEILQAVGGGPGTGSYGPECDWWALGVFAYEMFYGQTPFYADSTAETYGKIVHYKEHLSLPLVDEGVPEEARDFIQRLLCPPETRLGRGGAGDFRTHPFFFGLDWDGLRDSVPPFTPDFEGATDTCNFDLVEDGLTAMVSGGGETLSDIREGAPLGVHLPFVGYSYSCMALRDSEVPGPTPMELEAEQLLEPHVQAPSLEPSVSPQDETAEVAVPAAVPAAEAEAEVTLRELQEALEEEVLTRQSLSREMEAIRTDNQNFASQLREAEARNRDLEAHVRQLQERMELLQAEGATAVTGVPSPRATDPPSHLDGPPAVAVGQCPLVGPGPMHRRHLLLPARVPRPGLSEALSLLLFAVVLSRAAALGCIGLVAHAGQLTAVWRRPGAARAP
Sequence of DRAK1(h) (Q9UEE5 whole entry): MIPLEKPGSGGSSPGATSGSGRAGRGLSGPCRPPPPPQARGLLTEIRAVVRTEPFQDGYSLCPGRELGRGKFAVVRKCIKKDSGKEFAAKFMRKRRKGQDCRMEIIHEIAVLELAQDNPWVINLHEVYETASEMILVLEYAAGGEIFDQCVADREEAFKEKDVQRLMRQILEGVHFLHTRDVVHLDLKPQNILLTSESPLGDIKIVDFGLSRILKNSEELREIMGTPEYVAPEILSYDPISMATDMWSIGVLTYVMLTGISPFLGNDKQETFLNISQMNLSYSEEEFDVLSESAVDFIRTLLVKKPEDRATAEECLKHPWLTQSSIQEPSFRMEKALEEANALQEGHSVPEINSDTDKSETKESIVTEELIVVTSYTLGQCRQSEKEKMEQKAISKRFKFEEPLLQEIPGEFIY
Sequence of PDK1(h) (O15530 whole entry): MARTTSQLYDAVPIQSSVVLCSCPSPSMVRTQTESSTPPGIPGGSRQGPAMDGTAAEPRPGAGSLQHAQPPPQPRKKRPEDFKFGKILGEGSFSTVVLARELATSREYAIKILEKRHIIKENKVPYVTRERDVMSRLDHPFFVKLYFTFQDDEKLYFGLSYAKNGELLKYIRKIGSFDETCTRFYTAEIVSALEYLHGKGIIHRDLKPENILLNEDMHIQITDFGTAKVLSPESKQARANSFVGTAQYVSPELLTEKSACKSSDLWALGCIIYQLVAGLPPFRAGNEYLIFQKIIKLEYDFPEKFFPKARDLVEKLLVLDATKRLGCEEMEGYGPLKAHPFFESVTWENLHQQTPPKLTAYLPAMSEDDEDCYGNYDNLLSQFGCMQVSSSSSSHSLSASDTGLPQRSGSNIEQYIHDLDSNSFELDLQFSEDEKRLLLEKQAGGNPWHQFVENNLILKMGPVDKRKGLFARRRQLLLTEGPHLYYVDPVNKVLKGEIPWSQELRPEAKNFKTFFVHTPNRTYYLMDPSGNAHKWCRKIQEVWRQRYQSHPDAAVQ
Sequence of CK1α(h) (P48729 whole entry): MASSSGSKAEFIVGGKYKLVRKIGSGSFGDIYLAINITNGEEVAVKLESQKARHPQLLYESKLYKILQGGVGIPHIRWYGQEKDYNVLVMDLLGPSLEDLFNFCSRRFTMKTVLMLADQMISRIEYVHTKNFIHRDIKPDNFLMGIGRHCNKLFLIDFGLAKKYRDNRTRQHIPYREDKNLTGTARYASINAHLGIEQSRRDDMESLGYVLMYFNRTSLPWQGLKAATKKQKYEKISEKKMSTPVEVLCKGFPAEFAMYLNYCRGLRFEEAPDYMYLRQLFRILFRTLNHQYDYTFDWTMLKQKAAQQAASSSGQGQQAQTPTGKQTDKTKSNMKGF
Sequence of NDR2(h) (Q9Y2H1 whole entry): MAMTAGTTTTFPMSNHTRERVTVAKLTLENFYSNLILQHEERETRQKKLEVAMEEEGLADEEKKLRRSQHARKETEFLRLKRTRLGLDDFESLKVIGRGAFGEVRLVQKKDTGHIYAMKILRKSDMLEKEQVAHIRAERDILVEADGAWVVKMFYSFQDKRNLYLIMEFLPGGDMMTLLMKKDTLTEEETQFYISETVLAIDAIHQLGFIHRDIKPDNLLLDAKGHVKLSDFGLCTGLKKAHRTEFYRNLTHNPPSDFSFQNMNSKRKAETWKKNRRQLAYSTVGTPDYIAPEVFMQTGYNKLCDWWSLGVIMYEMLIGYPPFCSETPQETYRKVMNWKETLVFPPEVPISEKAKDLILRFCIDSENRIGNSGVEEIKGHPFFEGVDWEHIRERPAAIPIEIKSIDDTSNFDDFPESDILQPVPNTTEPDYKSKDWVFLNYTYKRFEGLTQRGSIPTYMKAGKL

Cc1cc2c(-c3ccc(NC(=O)[C@H](N)CC(C)(C)C)cc3C)ccnc2[nH]1 [Compound F-90, (2R)-2-Amino-4,4-dimethyl-N-[3-methyl-4-(2-methyl-1H-pyrrolo[2,3-b]pyridin-4-yl)phenyl]pentanamide]
IC50 [1]: 2.18 µM | Kd [2]: 9.9 nM | IC50 ([2]; HEK293T cells transfected with NanoLuc-CITK, Tracer K10 1 μM, 2 hours): 0.053 µM | % Activity [3]: 97% | % Activity [4]: 83% | % Activity [5]: 108% | % Activity [6]: 97% | % Activity [7]: 85% | % Activity [8]: 93% | % Activity [9]: 80% | % Activity [10]: 112% | % Activity [11]: 97% | % Activity [12]: 104% | % Activity [13]: 102% | % Activity [14]: 112% | % Activity [15]: 107% | % Activity [16]: 89% | % Activity [17]: 105% | % Activity [18]: 103% | % Activity [19]: 94%
